Several values for one entry are separate records, joined by “and”; a condition that tells them apart may be missing. Identical values can stand only once.
Key:
[1] = test system: Mus musculus; conditions: for LC50: inhalation
[2] = test system: Oryctolagus sp.; conditions: for LD50: acute
[3] = test system: Rattus norvegicus; conditions: for LC50 / LD50: acute
[4] = test system: Rattus norvegicus; conditions: oral
[5] = test system: Canidae; conditions: chronic, oral, diet, Dog Other
[6] = short-term, duration: 13 days, oral, diet, B6C3F1
[7] = subchronic, duration: 13 weeks, oral, diet, B6C3F1
[8] = subchronic, duration: 13 weeks, oral, diet, Fischer 344
[9] = short-term, duration: 28 days, gavage, M, Sprague-Dawley, Deaths + Clinical Observation: Locomotor activity decrease, SalivationDiarrhea or loose stool Staining around nose and mouth + Functional …
[10] = duration: 1 years, F, liver effects
[11] = duration: 1 years, M, liver effects
[12] = duration: 1 years, M/F, Blood loss into the gastrointestinal tract + coagulation defect in male and female dogs
[13] = duration: 1 years, M/F, increased wbc, decreased rbc (females), increased alkaline phosphatase (males)
[14] = duration: 6 months, M/F, hematological effects
[15] = developmental, duration: 6 days, oral, ICR
[16] = reproduction developmental, duration: 6 days, oral, F, ICR
[17] = short-term, duration: 13 days, oral, gavage, B6C3F1
[18] = short-term, duration: 16 days, oral, gavage, B6C3F1
[19] = subchronic, duration: 13 weeks, oral, gavage, B6C3F1
[20] = reproduction developmental, duration: 13 days, oral, F, Japanese White
[21] = chronic, duration: 103 weeks, oral, gavage, F, Fischer 344
[22] = developmental, duration: 7 days, oral, Wistar
[23] = short-term, duration: 13 days, oral, gavage, Fischer 344
[24] = short-term, duration: 13 days, oral, gavage, M, Fischer 344
[25] = short-term, duration: 16 days, oral, gavage, Fischer 344
[26] = subchronic, duration: 30 days, oral, M, Sprague-Dawley
[27] = subchronic, duration: 30 days, oral, Sprague-Dawley

CC(C)(C)C(=O)O [2,2-Dimethylpropanoic acid]
LC50 ([1]; acute, Swiss): < 4 µg/mL
LD50 ([2]; dermal): 3160 mg/kg
LD50 ([2]; dermal, semiocclusive): 3160 mg/kg
NOAEL ([2]; repeat dose other, dermal, M): 300 mg/kg-day
NOAEL ([2]; repeat dose other, dermal, semiocclusive): 300 mg/kg-day
LC50 ([3]; inhalation, Wistar): < 4 µg/mL
NOAEL ([3]; short-term, duration: 28 days, oral, gavage, Fischer 344): 300 mg/kg-day
NOAEL ([4]; short-term, duration: 28 days, gavage, M/F, Fischer 344, Clinical Observation: Head shaking Sneezing Dark nasal discharge + Blood Chemistry: ALP increase, T-Cho increase, T-Bil increase + Absolute …): 300 mg/kg-day

CC(C)(N)CO [2-Amino-2-methylpropan-1-ol]
LD50 ([1]; acute, oral, gavage): 3350 mg/kg
LD50 ([2]; dermal, occlusive): > 2000 mg/kg
LOAEL ([3]; subchronic, duration: 3 months, oral, diet, Sprague-Dawley): 240 mg/kg-day

Cc1cc(O)c(C(C)(C)C)cc1Sc1cc(C(C)(C)C)c(O)cc1C [4,4'-Thiobis(6-tert-butyl-m-cresol)]
LOAEL [1, 6]: 500 ppm
NOAEL [1, 6]: 250 ppm
LOAEL [1, 7]: 98.5 mg/kg-day
NOAEL [1, 7]: 49.2 mg/kg-day
LD50 ([2]; dermal, New Zealand): > 5010 mg/kg
LD50 ([2]; dermal, occlusive, New Zealand): > 5010 mg/kg
NOAEL ([2]; reproduction developmental, duration: 13 days, oral, gavage, F, New Zealand): 0.2 mg/kg-day
LD50 ([3]; oral, diet, Sprague-Dawley): 4150 mg/kg
LD50 ([3]; oral, gavage, Sprague-Dawley): 4150 mg/kg
LOAEL ([3]; short-term, duration: 13 days, oral, diet, Fischer 344): 250 ppm
NOAEL ([3]; short-term, duration: 15 days, oral, diet, Fischer 344): 2500 ppm
LOAEL [3, 8]: 96 mg/kg-day
NOAEL [3, 8]: 48 mg/kg-day
NOAEL [4, 9]: 60 mg/kg-day
NOEL [4, 9]: < 60 mg/kg-day
NOEL ([4]; subchronic, duration: 13 weeks, diet, F, Fischer 344, Clinical Observation: Diarrhea + Body Weight Changes: decrease + Food Consumption: decrease + Hematology: Nucleated erythrocyte increase, …): < 15 mg/kg-day
NOEL ([4]; subchronic, duration: 13 weeks, diet, M/F, Fischer 344, Clinical Observation: Diarrhea + Body Weight Changes: decrease + Food Consumption: decrease + Hematology: Nucleated erythrocyte increase, …): < 24 mg/kg-day

COC(=O)c1ccccc1CS(=O)(=O)NC(=O)Nc1nc(OC)cc(OC)n1 [Bensulfuron-methyl]
LEL [5, 10]: 223 mg/kg-day
NOEL [5, 10]: 19.9 mg/kg-day
LEL [5, 11]: 237 mg/kg-day
NOEL [5, 11]: 21.4 mg/kg-day

CC(C)N1C(=O)c2ccccc2NS1(=O)=O [Bentazone]
LOAEL [5, 12]: 13.1 mg/kg-day
NOAEL [5, 12]: 3.2 mg/kg-day

CCOC(=O)c1ccccc1S(=O)(=O)NC(=O)Nc1nc(Cl)cc(OC)n1 [Chlorimuron-ethyl]
LEL [5, 13]: 37.5 mg/kg-day
NOEL [5, 13]: 6.25 mg/kg-day

O=C(Cl)CCl [Chloroacetyl chloride]
LC50 ([1]; acute): 11100 mg/m3
LD50 ([2]; dermal, semiocclusive, New Zealand): ≥ 316 mg/kg and ≤ 501 mg/kg
LC50 ([3]; inhalation, Fischer 344): 3050 mg/m3
LD50 ([3]; oral): ≥ 1260 mg/kg and ≤ 2500 mg/kg
LD50 ([3]; oral, Sprague-Dawley): 207 mg/kg
LOAEL ([3]; short-term, duration: 4 weeks, inhalation, Fischer 344): 2.31 mg/m3

Nc1nc(N)nc(NC2CC2)n1 [Cyromazine]
LEL [5, 14]: 7.5 mg/kg-day
NOEL [5, 14]: 0.75 mg/kg-day

C=C(C)[C@H]1CC=C(C)CC1 [D-Limonene]
NOAEL ([1]; chronic, duration: 103 weeks, oral, gavage, B6C3F1): 500 mg/kg-day
LOAEL ([1]; chronic, duration: 103 weeks, oral, gavage, F, B6C3F1): 1000 mg/kg-day
LOAEL [1, 15]: 2360 mg/kg-day
NOAEL [1, 15]: 591 mg/kg-day
LOAEL [1, 16]: 2360 mg/kg-day
NOAEL [1, 16]: 591 mg/kg-day
LOAEL [1, 17]: 1000 mg/kg-day
NOAEL [1, 17]: 500 mg/kg-day
LOAEC [1, 18]: 3300 mg/kg-day
LOAEL [1, 18]: 3300 mg/kg-day
NOAEL [1, 18]: 1650 mg/kg-day
LOAEL [1, 19]: 1000 mg/kg-day
NOAEL [1, 19]: 500 mg/kg-day
LOAEL [2, 20]: 500 mg/kg-day
NOAEL [2, 20]: 250 mg/kg-day
NOAEL ([2]; reproduction developmental, duration: 13 days, oral, Japanese White, generation: F1): > 1000 mg/kg-day
LOAEL [3, 21]: 600 mg/kg-day
NOAEL [3, 21]: 300 mg/kg-day
LOAEL ([3]; chronic, duration: 103 weeks, oral, gavage, M, Fischer 344): 75 mg/kg-day
LOAEL [3, 22]: 2870 mg/kg-day
NOAEL [3, 22]: 591 mg/kg-day
NOAEL ([3]; reproduction developmental, duration: 7 days, oral, F, Wistar): 591 mg/kg-day
LOAEL [3, 23]: 600 mg/kg-day
NOAEL [3, 23]: 300 mg/kg-day
LOAEL [3, 24]: 30 mg/kg-day
NOAEL [3, 24]: 5 mg/kg-day
LOAEC [3, 25]: 1650 mg/kg-day
LOAEL [3, 25]: 3300 mg/kg-day
NOAEL [3, 25]: 1650 mg/kg-day
LOAEL [3, 26]: 2770 mg/kg-day
NOAEL [3, 26]: 1380 mg/kg-day
LOAEL [3, 27]: 2770 mg/kg-day
NOAEL [3, 27]: 1380 mg/kg-day
NOEL ([4]; subchronic, duration: 13 weeks, gavage, M/F, Fischer 344, Deaths + Clinical Observation: Rough hair coats Excessive lacrimation + Body Weight Changes: decrease + Histopathology: Kidney-Nephropathy): < 150 mg/kg-day

— EPA's ToxValDB 9.5
